In general, Ki refers to a dissociation constant, usually derived from enzyme kinetics or from competition with a known ligand.

The record followed here is paper PMC5113775, “Mirror‐Image Packing Provides a Molecular Basis for the Nanomolar Equipotency of Enantiomers of an Experimental Herbicide” (Angewandte Chemie (International Ed. in English), 2016).

One test has as its target T1, At ΔN IGPD2 construct A (Arabidopsis thaliana, UniProt O23346).
T1 construct: gene HISN5B; N-terminally truncated (delta-N) construct A, longer than construct B; borders only in supplement
Nature of the test: crystal structure, […] Å. It is filed as binding. To be noted: active site, two manganese ions; racemate.

In another test the target is T2, At ΔN IGPD2 construct B (Arabidopsis thaliana, UniProt O23346).
T2 construct: gene HISN5B; N-terminally truncated (delta-N) construct B, shorter than construct A; borders only in supplement; Mn2+ enzyme; EC 4.2.1.19
T2 sequence (O23346 69-272, stated change not applied): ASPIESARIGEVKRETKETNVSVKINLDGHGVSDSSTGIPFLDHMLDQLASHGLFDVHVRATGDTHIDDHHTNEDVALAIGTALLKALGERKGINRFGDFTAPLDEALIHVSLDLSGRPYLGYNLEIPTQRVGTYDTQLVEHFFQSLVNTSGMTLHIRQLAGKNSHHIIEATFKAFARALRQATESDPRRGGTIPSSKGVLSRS
In words: in vitro enzyme inhibition assay; crystal structure. The test is classed as biochemical.

T1 sequence (O23346 53-272, stated change not applied): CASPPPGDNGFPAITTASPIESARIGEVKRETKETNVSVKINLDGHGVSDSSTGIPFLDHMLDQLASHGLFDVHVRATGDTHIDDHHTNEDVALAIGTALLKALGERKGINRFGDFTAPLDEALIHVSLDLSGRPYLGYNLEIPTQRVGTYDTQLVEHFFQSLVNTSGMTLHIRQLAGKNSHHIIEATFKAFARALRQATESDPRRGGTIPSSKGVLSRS

On to `O=P(O)(O)CC(O)Cn1cncn1` (racemic) [C348, 2‐hydroxy‐3‐(1,2,4‐triazol‐1‐yl) propylphosphonate], for which, at At ΔN IGPD2 construct A, the “crystal structure, 1.85 Å” value is “grown in the presence of a racemate of C348 and the structure”. The compound `O=P(O)(O)C[C@H](O)Cn1cncn1` [(R)‐C348, 2‐hydroxy‐3‐(1,2,4‐triazol‐1‐yl) propylphosphonate] yielded a Ki on At ΔN IGPD2 construct B of 0.015 ± 0.005 µM. `O=P(O)(O)C[C@@H](O)Cn1cncn1` [(S)‐C348, 2‐hydroxy‐3‐(1,2,4‐triazol‐1‐yl) propylphosphonate] yielded a Ki at At ΔN IGPD2 construct B of 0.025 ± 0.003 µM. This Ki lies about 1.7-fold higher than the previous one.
